Measured values taken from patent US7659299B2, “Compounds inhibiting the binding of sap for treating osteoarthritis” (Pentraxin Therapeutics Limited, priority 2003, dated 2010).

Assays:
Parameters in all cases: 5 μl of radiolabelled SAP in TN; from tissue
[1] = biological target: T1, SAP (Homo sapiens, UniProt P02743); assay: Inhibition of binding of 125I radiolabelled SAP to Neisseria meningitidis immobilized in microtitre plates; conditions: read-out: Percent inhibition of binding of radiolabelled SAP to immobilized Neisseria meningitidis
[2] = biological target: T1, SAP; assay: Treatment of patients with osteoarthritis: plasma SAP concentration and joint symptoms; type: in vivo; conditions: patient
Description: 1) The patient, a person retired General Practitioner living in New Zealand, has a long history of bone and joint injuries, starting as a child on a farm and continuing as a teenager and then adult playing rugby and skiing. They have suffered from pain and swelling of previously damaged joints following manual work and especially in cold weather. The proximal interphalangeal joints of the left middle and right fourth fingers, the right elbow and the mid-thoracic intervertebral joints have been most affected. Symptoms and signs have progressively worsened over the past 22 years, so that their capacity for physical work had become very restricted and during winter they have required frequent or continuous treatment with non-steroidal anti-inflammatory drugs. These are all typical manifestations of osteoarthritis. In 2000 the discovery of impaired renal function led eventually to a second, and completely separate diagnosis of hereditary systemic amyloidosis caused by a mutation in the gene for fibrinogen A α-chain.
They started experimental treatment for their amyloidosis on 9 Oct. 2001 with (R)-1-[6-[(R)-2-Carboxy-pyrrolidin-1-yl]-6-oxo-hexanoyl]pyrrolidine-2-carboxylic acid, 10 mg b.d. by subcutaneous injection. […] This improvement was sustained and increased so that by April 2002, the autumn in New Zealand, it was impressively beyond doubt. Throughout that winter, for the first time in many years, […] no longer required treatment with non-steroidal anti-inflammatory drugs, despite increased physical activity. […] Over the past few months they have been doing regular hard physical work on the land, fencing and landscaping, including lifting and carrying significant weights, without suffering any of the pain and swelling that previously severely affected them even without the stress of unusual physical activity.
Their shoulders were painful, particularly when reaching up or behind their head, making drying their hair and some household tasks painful and difficult. […] They also experienced pain in their right wrist when performing some tasks, particularly opening jars, a manoeuvre that they found difficult. These symptoms are all compatible with osteoarthritis.
CD has hereditary systemic amyloidosis caused by a mutation in the gene for apolipoprotein AI, diagnosed in October 2001 during investigation of chronic renal impairment. […] They started experimental treatment for their amyloidosis on 22 Oct. 2001 with (R)-1-[6-[(R)-2-Carboxy-pyrrolidin-1-yl]-6-oxo-hexanoyl]pyrrolidine-2-carboxylic acid, 15 mg b.d. by subcutaneous injection. […] Treatment with (R)-1-[6-[(R)-2-Carboxy-pyrrolidin-1-yl]-6-oxo-hexanoyl]pyrrolidine-2-carboxylic acid finished in October 2002 and their remarkable remission has continued to the present (June 2003).

[3] = biological target: T1, SAP; assay: Inhibition of binding of 125I radiolabelled SAP to influenza virus immobilized in microtitre plates; conditions: read-out: Percent inhibition of binding of radiolabelled SAP to immobilized influenza virus

T1 sequence (P02743 20-223): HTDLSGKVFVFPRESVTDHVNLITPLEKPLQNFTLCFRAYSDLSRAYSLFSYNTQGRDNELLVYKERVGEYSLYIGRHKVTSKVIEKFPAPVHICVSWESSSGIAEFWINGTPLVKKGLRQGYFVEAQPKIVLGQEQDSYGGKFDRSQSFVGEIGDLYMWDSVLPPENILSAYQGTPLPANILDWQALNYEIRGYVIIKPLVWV

## O=C(O)[C@H]1CCCN1C(=O)CCCCC(=O)N1CCC[C@@H]1C(=O)O [Ro-63-8695, (R)-1-[6-[(R)-2-Carboxy-pyrrolidin-1-yl]-6-oxo-hexanoyl]pyrrolidine-2-carboxylic acid]
[1]; compound 200 nM
  inhibition at 0.2 µM: 5%
[1]; compound 2 μM
  inhibition at 2 µM: 61%
[1]; compound 20 μM
  inhibition at 20 µM: 74%
[1]; compound 200 μM
  inhibition at 200 µM: 79%
[1]; compound 2 mM
  inhibition at 2000 µM: 100%
[2]; 10 mg b.d. subcutaneous injection, after three months
  plasma SAP concentration reduced by: over 95%
[2]; 10 mg b.d. subcutaneous injection, treatment Oct. 2001 to June 2003
  symptoms of osteoarthritis: remained in remission
[2]; 15 mg b.d. subcutaneous injection, after two months
  plasma SAP concentration reduced by: over 95%
[2]; 15 mg b.d. subcutaneous injection, by January 2002 (start 22 Oct. 2001)
  joint pain and function: free of pain and had normal function of their joints
[3]; compound 200 nM
  inhibition at 0.2 µM: 36%
[3]; compound 2 μM
  inhibition at 2 µM: 81%
[3]; compound 20 μM
  inhibition at 20 µM: 90%
[3]; compound 200 μM
  inhibition at 200 µM: 96%
[3]; compound 2 mM
  inhibition at 2000 µM: 98%
